Tests used:
MV4-11 cells = assay: FACS apoptosis detection assay (Annexin V/PI); assay type: cell-based; conditions: MV4-11, 18 h, listed as KT-531
Description: MV4-11 cells were prepared, dosed, and washed with cold 1× PBS. The resulting cell pellets were resuspended in 1× Binding Buffer (1 × 10^6 cell/mL) from the FITC Annexin V Apoptosis Detection Kit I (BD Pharmingen). Subsequently, the dyes annexin V (5 μL) and propidium iodide (PI, 5 μL) were added to 2.5 × 10^5 cells (250 μL). The suspension was thoroughly mixed and incubated in the dark for 15 min. Following the addition of 250 μL of 1× binding buffer, the cells were analyzed by flow cytometry within 1 h using the Cytoflex S system (Beckman Coulter).

HDAC8 = target: T1, HDAC8 (Homo sapiens, UniProt Q9BY41); assay: HDAC EMSA activity assay (Nanosyn); assay type: biochemical; conditions: EMSA (Nanosyn); read-out: IC50 HDAC8
T1 construct: The full-length human HDACs were recombinantly expressed and purified from SF9 insect cells; host or cells: SF9 insect cells
T1 sequence (Q9BY41 1-377): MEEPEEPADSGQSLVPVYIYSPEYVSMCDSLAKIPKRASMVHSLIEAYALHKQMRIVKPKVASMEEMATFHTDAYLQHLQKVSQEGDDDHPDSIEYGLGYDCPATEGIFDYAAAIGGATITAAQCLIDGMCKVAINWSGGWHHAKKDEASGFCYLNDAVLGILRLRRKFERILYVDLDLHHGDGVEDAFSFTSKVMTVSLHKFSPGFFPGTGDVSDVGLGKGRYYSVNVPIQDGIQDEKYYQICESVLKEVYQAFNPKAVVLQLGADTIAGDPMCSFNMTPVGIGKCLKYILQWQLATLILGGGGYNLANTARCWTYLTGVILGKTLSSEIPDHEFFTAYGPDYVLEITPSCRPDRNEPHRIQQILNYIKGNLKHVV

HDAC3 = target: T2, HDAC3 (Homo sapiens, UniProt O15379); assay: HDAC EMSA activity assay (Nanosyn); assay type: biochemical; conditions: read-out: IC50 HDAC3
T2 construct: The full-length human HDACs were recombinantly expressed and purified from SF9 insect cells; host or cells: SF9 insect cells
T2 sequence (O15379 whole entry): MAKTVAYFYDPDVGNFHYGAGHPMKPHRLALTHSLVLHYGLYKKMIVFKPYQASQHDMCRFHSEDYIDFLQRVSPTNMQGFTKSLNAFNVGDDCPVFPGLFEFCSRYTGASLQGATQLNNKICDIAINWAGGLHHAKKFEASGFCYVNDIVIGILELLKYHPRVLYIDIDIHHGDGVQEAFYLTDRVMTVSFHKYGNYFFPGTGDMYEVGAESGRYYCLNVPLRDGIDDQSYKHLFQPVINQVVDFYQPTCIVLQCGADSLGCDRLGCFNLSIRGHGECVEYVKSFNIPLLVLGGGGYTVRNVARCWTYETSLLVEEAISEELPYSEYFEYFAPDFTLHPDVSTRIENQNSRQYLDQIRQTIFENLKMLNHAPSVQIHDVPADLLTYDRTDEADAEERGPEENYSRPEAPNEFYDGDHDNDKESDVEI
T2 sequence (Q9Y618 395-489 partner limits assumed): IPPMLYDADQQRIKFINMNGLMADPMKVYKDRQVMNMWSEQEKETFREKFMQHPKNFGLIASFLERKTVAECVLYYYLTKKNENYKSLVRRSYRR

HDAC6 = target: T3, HDAC6 (Homo sapiens, UniProt Q9UBN7); assay: HDAC EMSA activity assay (Nanosyn); assay type: biochemical; design: The full-length human HDACs were recombinantly expressed and purified from SF9 insect cells; host or cells: SF9 insect cells; conditions: EMSA (Nanosyn); read-out: IC50 HDAC6
T3 sequence (Q9UBN7 1-1215): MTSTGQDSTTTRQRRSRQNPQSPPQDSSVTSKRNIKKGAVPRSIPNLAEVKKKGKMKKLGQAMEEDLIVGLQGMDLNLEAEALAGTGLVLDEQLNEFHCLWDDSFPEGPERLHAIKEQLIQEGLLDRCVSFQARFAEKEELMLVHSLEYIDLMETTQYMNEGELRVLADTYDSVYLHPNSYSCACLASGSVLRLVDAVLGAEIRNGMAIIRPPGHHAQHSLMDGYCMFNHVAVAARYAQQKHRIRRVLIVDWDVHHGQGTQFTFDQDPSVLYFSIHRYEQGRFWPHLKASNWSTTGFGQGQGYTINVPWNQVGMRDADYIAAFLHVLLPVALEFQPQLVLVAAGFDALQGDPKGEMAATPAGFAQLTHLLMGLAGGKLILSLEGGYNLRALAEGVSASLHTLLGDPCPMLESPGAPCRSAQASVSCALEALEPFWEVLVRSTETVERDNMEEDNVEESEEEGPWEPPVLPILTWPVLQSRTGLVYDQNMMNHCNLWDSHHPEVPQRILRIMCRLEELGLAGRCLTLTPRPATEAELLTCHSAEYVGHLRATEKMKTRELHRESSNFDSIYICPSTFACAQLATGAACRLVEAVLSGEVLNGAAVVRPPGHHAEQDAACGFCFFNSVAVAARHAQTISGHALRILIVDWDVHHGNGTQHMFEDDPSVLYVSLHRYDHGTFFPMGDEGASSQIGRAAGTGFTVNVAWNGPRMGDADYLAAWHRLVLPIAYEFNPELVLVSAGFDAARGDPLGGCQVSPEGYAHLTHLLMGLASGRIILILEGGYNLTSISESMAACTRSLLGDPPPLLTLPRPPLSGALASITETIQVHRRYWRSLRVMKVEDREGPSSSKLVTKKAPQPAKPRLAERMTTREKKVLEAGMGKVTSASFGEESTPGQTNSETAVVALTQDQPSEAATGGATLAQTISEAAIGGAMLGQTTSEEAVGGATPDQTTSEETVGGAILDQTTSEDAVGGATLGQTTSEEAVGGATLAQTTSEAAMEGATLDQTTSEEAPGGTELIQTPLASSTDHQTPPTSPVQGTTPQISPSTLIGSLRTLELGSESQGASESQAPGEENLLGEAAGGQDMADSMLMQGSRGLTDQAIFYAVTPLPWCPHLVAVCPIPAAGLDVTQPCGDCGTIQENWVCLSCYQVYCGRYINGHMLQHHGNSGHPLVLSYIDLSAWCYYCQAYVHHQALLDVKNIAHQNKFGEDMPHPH

[1] = system: primary T-PLL patient samples; assay: Ex vivo drug sensitivity (DSS) in primary T-PLL patient samples; assay type: cell-based, human; conditions: p = 0.0007, Wilcoxon test
Description: Primary T-PLL cells were isolated from peripheral blood (PB) of 10 T-PLL patients. All patients were diagnosed according to WHO criteria based on clinical features, immunophenotyping (flow cytometry and histochemisty; including TCL1 expression), and FISH/karyotyping.[71],[72] Samples were obtained from patients under IRB-approved protocols following written informed consent according to the Declaration of Helsinki. Collection and use of patient material have been approved for research purpose by the ethics committee of the University Hospital of Cologne (EudraCT-Nr.: #2008-001421-34 and AZ11-319) and Helsinki (303/13/03/01/2011).
PB mononuclear cells (PBMCs) of T-PLL samples were obtained by density gradient centrifugation (Histopaque; Sigma-Aldrich). All drug screening in primary T-PLL patient samples were conducted as previously described.[34],[73]

HDAC11 = target: T4, HDAC11 (Homo sapiens, UniProt Q96DB2); assay: HDAC EMSA activity assay (Nanosyn); assay type: biochemical; conditions: read-out: IC50 HDAC11
T4 construct: The full-length human HDACs were recombinantly expressed and purified from SF9 insect cells; host or cells: SF9 insect cells
T4 sequence (Q96DB2 1-347): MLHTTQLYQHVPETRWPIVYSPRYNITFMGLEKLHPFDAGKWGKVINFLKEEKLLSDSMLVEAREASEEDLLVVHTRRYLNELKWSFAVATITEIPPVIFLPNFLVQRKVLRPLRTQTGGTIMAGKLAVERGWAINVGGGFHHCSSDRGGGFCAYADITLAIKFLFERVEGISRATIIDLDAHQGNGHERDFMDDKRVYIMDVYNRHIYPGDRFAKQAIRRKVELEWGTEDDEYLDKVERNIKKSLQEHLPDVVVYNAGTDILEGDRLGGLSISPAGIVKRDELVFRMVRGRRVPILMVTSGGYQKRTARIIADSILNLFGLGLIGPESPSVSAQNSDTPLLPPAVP

HDAC2 = target: T5, HDAC2 (Homo sapiens, UniProt Q92769); assay: HDAC EMSA activity assay (Nanosyn); assay type: biochemical
T5 construct: The full-length human HDACs were recombinantly expressed and purified from SF9 insect cells; host or cells: SF9 insect cells
T5 sequence (Q92769 whole entry): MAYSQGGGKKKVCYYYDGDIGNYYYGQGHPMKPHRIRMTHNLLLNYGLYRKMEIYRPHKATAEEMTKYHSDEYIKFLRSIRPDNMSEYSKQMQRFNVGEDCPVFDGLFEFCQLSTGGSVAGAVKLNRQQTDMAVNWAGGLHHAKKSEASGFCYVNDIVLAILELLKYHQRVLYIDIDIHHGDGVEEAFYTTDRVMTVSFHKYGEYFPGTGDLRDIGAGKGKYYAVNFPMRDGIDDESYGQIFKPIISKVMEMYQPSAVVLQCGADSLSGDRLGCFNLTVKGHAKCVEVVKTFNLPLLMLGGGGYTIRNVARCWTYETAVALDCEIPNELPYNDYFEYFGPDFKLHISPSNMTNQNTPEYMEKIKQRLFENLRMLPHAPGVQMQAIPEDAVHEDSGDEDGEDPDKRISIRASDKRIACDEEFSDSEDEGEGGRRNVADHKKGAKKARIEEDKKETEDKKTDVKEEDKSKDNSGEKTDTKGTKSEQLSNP

O=C(NO)c1ccc(CN(C2CC2)S(=O)(=O)c2cc(F)c(F)c(F)c2F)cc1 [Compound 14, 4-(((N-Cyclopropyl-2,3,4,5-tetrafluorophenyl)sulfonamido)methyl)-N-hydroxybenzamide]
Early Apoptosis (MV4-11 cells; 0.5 μM): 15% | Late Apoptosis (MV4-11 cells; 1 μM): 22% | Healthy (nonapoptotic) (MV4-11 cells; 2 μM): 8% | IC50 (HDAC8): 334 nM | IC50 (HDAC3): > 1000 nM | IC50 (HDAC6): 8.5 nM | drug response (DSS) versus vorinostat (SAHA) [1]: more potent drug response | IC50 (HDAC11): > 1000 nM | IC50 (HDAC2): > 1000 nM
